Patent US6989371B1, “Bombesin analogs for treatment of cancer” (Dabur Research Foundation, priority 1996, dated 2006)
Non-standard residues stand in square brackets, D forms with d. Residues, ends and D or L forms follow the SMILES beside them. Aib = CC(C)(N)C(=O)O

Legend:
Assay in all cases: MTT cytotoxicity assay, 72 hours (Example 13)
Type in all cases: cell-based, human
PTC (colon) = tested on: PTC (colon)
Procedure: (§1) The cytotoxic activity of other synthesized bombesin analogs was tested on eight human tumor cell lines namely HT-29, SW620, PTC (all colon), PA-1 (ovary), A549 (lung), HBL100(breast), MOLT-4 (leukemia) and DU145 (prostate). The tumor cells were collected at exponential growth phase and resuspended in medium (1.5×10^6) cells/ml in RPMI 1640 containing 10% FBS). 150 μl of medium was added to the wells of a 96-well tissue culture plate (Nunc, Denmark) followed by 30 μl of cell suspension. The plate was left in incubator (37° C., 5% CO2 overnight. 20 μl of the peptide (10^−7×10^×10M concentration) was added to marked wells of the 96-well plate. Each concentration was plated in cells served as blanks. A total volume of 200 μl was ensured in each well and plate was left in incubator (37° C., 5% CO2). After 72 hours of incubation an MTT assay was performed and percentage cytotoxicity was calculated with respect to control cells. Following tables show the cytotoxicity achieved on various cell lines at different concentrations.

HBL100 (breast) = conditions: HBL
Procedure: as §1

PA-1 (ovary) = tested on: PA-1 (ovary)
Procedure: as §1

MOLT-4 (leukemia) = tested on: MOLT-4 (leukemia)
Procedure: as §1

SW620 (colon) = tested on: SW620 (colon)
Procedure: as §1

A549 (lung) = tested on: A549 (lung)
Procedure: as §1

HT-29 (colon) = tested on: HT-29 (colon)
Procedure: as §1

DU145 (prostate) = tested on: DU145 (prostate)
Procedure: as §1

In the case of `CC[C@H](C)[C@H](NC(=O)[C@H](Cc1c[nH]cn1)NC(=O)CNC(=O)[C@@H](NC(=O)C(C)(C)NC(=O)[C@H](Cc1c[nH]c2ccccc12)NC(=O)[C@H](CCC(N)=O)NC(=O)[C@H](N)Cc1ccccc1)C(C)C)C(N)=O` [SEQ ID: 6, D-Phe-Gln-Trp-Aib-Val-Gly-His-Ile-NH2] (H-[dF]QW[Aib]VGHI-NH2; N-terminus assumed), the “Percent Cytotoxicity” value (PTC (colon); 1 nM) is reported as 9.1 ± 0.7%, the “Percent Cytotoxicity” value (PTC (colon); 10 nM) is reported as 10.4 ± 0.8% and the “Percent Cytotoxicity” value (PTC (colon); 100 nM) is reported as 24.7 ± 5.2%. The “Percent Cytotoxicity” value (PTC (colon); 100 PM) was 10.1 ± 0.6%, the “Percent Cytotoxicity” value (HBL100 (breast); 1 nM) was 1.2 ± 0.3% and the “Percent Cytotoxicity” value (HBL100 (breast); 10 nM) was 6.0 ± 0.4%. For the same compound, the “Percent Cytotoxicity” value (HBL100 (breast); 100 nM) was 17.0 ± 0.5%, the “Percent Cytotoxicity” value (HBL100 (breast); 100 PM) was “NIL” and the “Percent Cytotoxicity” value (PA-1 (ovary); PA-1, 1 nM) was 7.4 ± 1.0%. For the same compound, the “Percent Cytotoxicity” value (PA-1 (ovary); PA-1, 10 nM) was 8.7 ± 1.9%, the “Percent Cytotoxicity” value (PA-1 (ovary); PA-1, 100 nM) was 9.2 ± 1.0% and the “Percent Cytotoxicity” value (PA-1 (ovary); PA-1, 100 PM) was 11.1 ± 2.9%. The “Percent Cytotoxicity” value (MOLT-4 (leukemia); MOLT4, 1 nM) was 0.8 ± 0.1%, the “Percent Cytotoxicity” value (MOLT-4 (leukemia); MOLT4, 10 nM) was 20.4 ± 4.3% and the “Percent Cytotoxicity” value (MOLT-4 (leukemia); MOLT4, 100 nM) was “NIL”. For the same compound, the “Percent Cytotoxicity” value (MOLT-4 (leukemia); MOLT4, 100 PM) was 11.0 ± 0.6%, the “Percent Cytotoxicity” value (SW620 (colon); SW620, 1 nM) was 33.5 ± 5.2% and the “Percent Cytotoxicity” value (SW620 (colon); SW620, 10 nM) was 38.1 ± 7.3%. For the same compound, the “Percent Cytotoxicity” value (SW620 (colon); SW620, 100 nM) was 23.5 ± 5.1%, the “Percent Cytotoxicity” value (SW620 (colon); SW620, 100 PM) was 24.8 ± 4.2% and the “Percent Cytotoxicity” value (A549 (lung); A549, 1 nM) was 13.0 ± 0.8%. For the same compound, the “Percent Cytotoxicity” value (A549 (lung); A549, 10 nM) was 3.2 ± 0.1%, the “Percent Cytotoxicity” value (A549 (lung); A549, 100 nM) was 1.9 ± 0.6% and the “Percent Cytotoxicity” value (A549 (lung); A549, 100 PM) was 12.4 ± 0.7%. The “Percent Cytotoxicity” value (HT-29 (colon); HT29, 1 nM) was 26.7 ± 4.2%, the “Percent Cytotoxicity” value (HT-29 (colon); HT29, 10 nM) was 6.8 ± 0.7% and the “Percent Cytotoxicity” value (HT-29 (colon); HT29, 100 nM) was “NIL”. The “Percent Cytotoxicity” value (HT-29 (colon); HT29, 100 PM) was 16.8 ± 0.5%, the “Percent Cytotoxicity” value (DU145 (prostate); DU145, 1 nM) was 3.9 ± 5.2% and the “Percent Cytotoxicity” value (DU145 (prostate); DU145, 10 nM) was 16.6%. For the same compound, the “Percent Cytotoxicity” value (DU145 (prostate); DU145, 100 nM) was 13.7 ± 0.9% and the “Percent Cytotoxicity” value (DU145 (prostate); DU145, 100 PM) was 12.1 ± 0.8%.
